For test [1], the target named is T1, translocase enzyme (Escherichia coli membranes) (Escherichia coli, UniProt P0A6W3).
T1 construct: The membranes are prepared from spheroplast pellets which are commercially available; Each pellet contains a certain amount of E. coli Hfr H; endogenous in cells; host or cells: E. coli Hfr H membranes, prepared from commercially available spheroplast pellets
Nature of the test: phospho-N-acetylmuramyl-pentapeptide translocase assay with 3H-propionated UDP-MPP, butanol extraction and scintillation counting. In kind it is biochemical. Particulars: Tunicamycin at 0.3 μg/ml; FIG. 2. As for the experimental part: Eppendorf tubes were individually filled with a total of 40 μl of the reaction mixture each, initially. The reaction mixture consisted of an aqueous buffer solution of 100 mM Tris-HCl (Tris[hydroxymethyl]aminomethane hydrochloride), 25 mM magnesium chloride, 50 Mm of potassium chloride, 0.1% w/v Triton X-100, 8 μM of propionated non-radioactive UDP-MPP, 2 μM of ^3H-propionated UDP-MPP at room temperature, 10 μl of the enzyme at a concentration of 5 μg per ml and 17.5 μl of water. To this a solution of a test compound (e.g. Tunicamycin) of varying concentration is added. […] The reaction commences with the addition of the enzyme.
The Escherichia coli membranes, which serve as a source of the enzyme, were prepared in the following manner.
The membranes are prepared from spheroplast pellets which are commercially available. Each pellet contains a certain amount of E. coli Hfr H. The pellet is thawed overnight at 4° C. The pellet is weighed and the figure is multiplied by 7.5. […] The pellet is again resuspended in the same volume of 50 mM Tris-HCl buffer solution of pH 7.5 as calculated in the previous paragraph, containing, 20 μg/ml DNAse, 20 μg/ml RNAse, 1 mM magnesium chloride and 1 mM β-mercapto ethanol. […]
The product is extracted with saturated n-butanol and washed with 50 μl of water. It is then counted, 25-50 μl at a time on a scintillation counter.

Test [2] deals with T1, translocase enzyme (Escherichia coli membranes). The experiment in a line: reversal of the translocase reaction (Lipid I back to the water soluble precursor) on addition of UMP. Type of test: biochemical. As to conditions: 1 μM UMP added after 10 minutes reaction, stopped after about 3-4 minutes. The text has this:
The reaction catalysed by the enzyme translocase is known to be reversible. To show the reversible reaction, the enzyme reaction was continued for 10 mintues to form the radioactive product, undecaprenol-pyrophosphate-[2,3-^3H]propionate-N-acetylmuramylpentapeptide, Lipid I. This is seperated from its organic phase. Once the radioactive product is formed one set of reactions is stopped using the 2:1 pyridinium acetate and n-butanol mixture as described before. In a parallel set of reactions, 1 μM UMP is added. The reaction is then stopped after about 3-4 minutes. The lipid fraction can be extracted from both the sets of reactions. […] This indicates the reversal of Lipid I to the water soluble precursor.

The record followed here is US6537770B1, “Assay for detecting phospho-N-acetylmuramyl-pentapeptide translocase activity” (priority 1999, dated 2003).

T1 sequence (P0A6W3 whole entry): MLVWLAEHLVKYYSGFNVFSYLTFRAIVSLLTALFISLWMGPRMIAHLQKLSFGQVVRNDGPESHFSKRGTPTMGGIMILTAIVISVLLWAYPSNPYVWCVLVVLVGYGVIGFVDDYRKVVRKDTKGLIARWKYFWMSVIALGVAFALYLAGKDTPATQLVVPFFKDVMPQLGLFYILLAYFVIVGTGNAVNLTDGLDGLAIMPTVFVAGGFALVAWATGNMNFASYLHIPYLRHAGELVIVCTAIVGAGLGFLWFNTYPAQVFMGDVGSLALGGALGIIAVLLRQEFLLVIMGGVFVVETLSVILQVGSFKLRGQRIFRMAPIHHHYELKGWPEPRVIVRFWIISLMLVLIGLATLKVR

Tunicamycin: the “inhibition of translocase (rate, cpm versus time compared with control)” value in test [1] was “antagonist of the translocase enzyme”.

Consider `O=c1ccn([C@@H]2O[C@H](COP(=O)(O)O)[C@@H](O)[C@H]2O)c(=O)[nH]1` [UMP], for which, in test [2], the “radioactive count in the organic phase (Lipid I)” value is on record as “reduced to basal levels”.
